Results taken from patent publication US11851410B2, “Sensors for detection of negatively charged phosphate-containing membranes and membrane components” (THE GOVERNING COUNCIL OF THE UNIVERSITY OF TORONTO, priority 2017, dated 2023).

Columns and labels:
[1] = cited from earlier work
[2] = system: POPE (PE) zwitterionic vesicles; assay: Serial dilution vesicle fluorescence intensity experiments, PE vesicles; format: binding; details: sensor 25 μM (PSVue™380 1 μM), 50 mM HEPES, 5% DMSO, pH 7.5
Description: (§1) The following equations were used for the calculations: […]

[3] = system: POPG (PG) negatively charged vesicles; assay: Serial dilution vesicle fluorescence intensity experiments, PG vesicles; format: binding; details: sensor 25 μM (PSVue™380 1 μM), 50 mM HEPES, 5% DMSO, pH 7.5
Description: as §1

[4] = system: TOCL (CL) negatively charged vesicles; assay: Serial dilution vesicle fluorescence intensity experiments, CL vesicles; format: binding; design: ΔΔFI: unit not given here; details: for ΔΔFI: sensor 25 μM (PSVue™380 1 μM), 50 mM HEPES, 5% DMSO, pH 7.5
Description: as §1

[5] = system: DOPS (PS) negatively charged vesicles; assay: Serial dilution vesicle fluorescence intensity experiments, PS vesicles; format: binding; design: ΔΔFI: unit not given here; details: for ΔΔFI: sensor 25 μM (PSVue™380 1 μM), 50 mM HEPES, 5% DMSO, pH 7.5
Description: as §1
It is estimated that a mammalian cell membrane is composed of 10% PS, with the majority located on the inner leaflet in the healthy state. However, during the early stages of apoptosis, this asymmetry is lost and PS becomes symmetrically distributed resulting in ˜5% of PS externalized to the outer leaflet. To address if compounds of this application could potentially be used for the detection of the PS externalization event during apoptosis, the exemplary sensors were screened against PC vesicles containing biologically-relevant levels of PS ([…]; assuming that approximately half of the lipid head groups will be exposed to the interior of the vesicle). The resulting ΔΔFI for vesicle concentrations up to 40 μM are presented in FIG. 7 and Table 1 (ΔΔFI for vesicle concentrations up to 200 μM is presented in FIG. 4).

[6] = system: POPA (PA) negatively charged vesicles; assay: Serial dilution vesicle fluorescence intensity experiments, PA vesicles; format: binding; details: for ΔΔFI: PA vesicles, sensor 25 μM (PSVue™380 1 μM), 50 mM HEPES, 5% DMSO, pH 7.5
Description: as §1

[7] = system: DOPS (PS) negatively charged vesicles; assay: Serial dilution vesicle fluorescence intensity experiments, PS vesicles; format: binding; design: ΔΔFI: unit not given here; details: for ΔΔFI: sensor 25 μM (PSVue™380 1 μM), 50 mM HEPES, 5% DMSO, pH 7.5; remark: listed apart in the source
[8] = system: Gram-positive bacteria (B. subtilis, B. megaterium, M. luteus, S. epidermidis); details: sensor 10 μM; λex/em 350/476 nm
Protocol: Bacteria samples were titrated from 10^8-10^10 cells/mL in a large-volume 12 well plate. Bacteria samples were added to black 384-well plates in triplicate.

[9] = system: E. coli K-12 BW25113 cells in presence of MV4-11 cells; assay: Fluorescence microscopy experiments with bacteria and mammalian cells; format: cell-based; details: 10^8 cells/mL E. coli; sensor 40 μM
Protocol: MV4-11 mammalian cells and bacteria samples were both added to a microscope chamber slide and left to incubate for 5 minutes. Visualization was performed first in bright field and then auto-fluorescence was recorded with UV excitation. Sensors were then added into the chamber at appropriate concentrations and fluorescence emission was captured.

[10] = system: negatively charged vesicles (PA, PS, PG, CL); assay: Vesicle fluorescence intensity experiments, all negatively charged vesicles; format: binding; details: sensor 25 μM; vesicles up to 200 μM; λex/em 350/476 nm
Protocol: (§2) Small Unilamellar Vesicles (SUVs) were prepared by the extrusion method. Appropriate amounts of lipid in the desired proportions were weighed out to create 10 mM liposome suspensions. The lipids were then dissolved in a minimum amount of chloroform and vortexed to ensure thorough mixing. The excess solvent was then dried off under a gentle stream of nitrogen and allowed to dry overnight in a vacuum dessicator to remove any remaining traces of solvent. The resulting lipid film was then hydrated with 2 mL of HEPES buffer (50 mM HEPES, pH 7.5) for 1 h. The sample was then subjected to five cycles of freeze-thaw-vortex, cycling between liquid nitrogen and a 60° C. water bath. The resulting suspension of multilamellar vesicles (MLVs) was then extruded 25 times through a 0.1 μm polycarbonate membrane installed in a mini-extruder (Avanti Polar Lipids, Alabaster, AL) to form SUV.
10 mM stock solutions of vesicles were diluted separately to 400 μM and 80 μM in pH 7.5, 50 mM HEPES buffer. […] The sensors were dissolved to a concentration of 50 μM (from 800 μM stock solutions in 100% DMSO) in 50 mM HEPES, pH 7.5, 10% DMSO buffer. […] Fluorescence intensities measured were used to calculate the following parameters: ΔFIexc, ΔΔFIexc, ΔFImon, ΔΔFImon, ΔΔFIexc/mon and ΔΔΔFI. The following equations were used for the calculations: […]
Of these, PC and PE represented the zwitterionic vesicles; PS (−1), PA (−1), PG (−1) and CL (−2) represented the negatively charged vesicles.
(§3) The fluorescence enhancement of the excimer (ΔFIexc) species in the presence of vesicles was calculated using equation 1, which is defined as the ratio of the emission intensities of the sensor-vesicle sample and the sensor alone.

[11] = system: zwitterionic vesicles (PC, PE); assay: Vesicle fluorescence intensity experiments, zwitterionic vesicles; format: binding; details: sensor 25 μM; vesicles up to 200 μM; λex/em 350/476 nm
Protocol: as §2
10 mM stock solutions of vesicles were diluted separately to 400 μM and 80 μM in pH 7.5, 50 mM HEPES buffer. […] Fluorescence intensities measured were used to calculate the following parameters: ΔFIexc, ΔΔFIexc, ΔFImon, ΔΔFImon, ΔΔFIexc/mon and ΔΔΔFI. […]
as §3

PA vesicles = assay: Zinc metalation fluorescence experiments; format: binding; details: for FIexc response to increasing PA vesicle concentrations, unmetallated: acid-treated glassware, chelex-treated buffers, non-normalized FIexc; for ability to detect PA vesicles in the absence of Zn^2+ (ΔFI): unmetallated sensors, PA vesicles 0-200 μM
Protocol: Vesicle fluorescence intensity experiments were performed in the absence or presence of zinc(II) (trifluoromethanesulfonate salt). Unmetallated PSVue™380 (PSVue™380*) was also included for reference.
All glassware was treated with 0.1 M HCl overnight, rinsed three times with MilliQ water, and oven dried. […] The sensor-zinc solutions were then combined with PA vesicles, prepared as described above, incubated as described above and the fluorescence emission intensity was then measured as described above.
In an effort to eliminate this possibility, all glassware was acid-treated and all buffers were chelex-treated to remove any metals, and the screens were repeated with PA vesicles. For these experiments, original non-normalized FIexc values were analyzed.

[12] = system: WT and mutant E. coli strains; assay: Bacteria mutant strain knockout fluorimetry, E. coli; format: cell-based; details: for effect of LPS kinase knockouts on fluorescence fold: E. coli ΔWaaP, ΔwaaG; for effect of cardiolipin synthase knockouts on fluorescence fold: E. coli ΔclsA, ΔclsB, ΔclsC
Description: Fluorescence intensities were used to calculate the excimer emission in response to bacterial strains. Measurements were averaged over two triplicates.

[13] = 33% CL vesicles, 20 μM vesicles
[14] = CL vesicles (50%), 5 μM vesicles
[15] = CL vesicles (50%), 20 μM vesicles
[16] = 25% PS vesicles, 20 μM vesicles
[17] = 75% PS vesicles, 20 μM vesicles
[18] = PS vesicles (50%), 5 μM vesicles
[19] = PS vesicles (50%), 20 μM vesicles

Row | SMILES | ΔΔFI ([2]; 5 μM vesicles) | ΔΔFI ([2]; 20 μM vesicles) | ΔΔFI ([3]; 5 μM vesicles) | ΔΔFI ([3]; 20 μM vesicles) | ΔΔFI ([4]; 33% CL vesicles, 5 μM vesicles) | ΔΔFI [4, 13] | ΔΔFI [4, 14] | ΔΔFI [4, 15] | ΔΔFI ([5]; 5% PS vesicles, 5 μM vesicles) | ΔΔFI ([5]; 5% PS vesicles, 20 μM vesicles) | ΔΔFI ([5]; 25% PS vesicles, 5 μM vesicles) | ΔΔFI [5, 16] | ΔΔFI ([6]; 5 μM vesicles) | ΔΔFI ([6]; 20 μM vesicles) | ΔΔFI ([7]; 75% PS vesicles, 5 μM vesicles) | ΔΔFI [7, 17] | ΔΔFI [7, 18] | ΔΔFI [7, 19] | also measured
1 | c1ccc(CNCc2ccccn2)nc1 [DPA] |  |  |  |  |  |  |  |  |  |  |  |  |  |  |  |  |  |  | pKa [1]: 2.60; pKa (first given) [1]: 7.30; pKa (third printed) [1]: 1.12
2 | c1cc2ccc3ccc(CCCCN4CCNCCNCCNCC4)c4ccc(c1)c2c34 [I-2] | 1.1 | 1.6 | 2.5 | 5.5 | 3 | 7.2 | 4.4 | 12 | 1.6 | 3.1 | 1.8 | 4.3 | 4.3 | 12.3 | 4.2 | 11.7 | 2.8 | 7.6 | 
3 | c1cc2ccc3ccc(CCCCN4CCCNCCNCCCNCC4)c4ccc(c1)c2c34 [I-4] | 1 | 1.3 | 3.4 | 7.7 | 3.9 | 9.2 | 5.9 | 16.3 | 2.2 | 3.9 | 2.9 | 5.6 | 7.3 | 21.7 | 7.1 | 16.7 | 4.5 | 10.3 | sensitivity compared to PSVue™380, 20 μM CL vesicles [4]: comparable; detection of PC vesicles containing 5 and 25% PS ([5]; 5 and 25% PS, corresponding to 2.5 and 12.5% of PS exposed to solution): efficiently detected; sensing PA compared to PSVue™380 ([6]; Table 1 comparison): superior; detection of Gram-positive bacteria with a fluorometer in bulk solution [8]: can detect Gram-positive bacteria; sensitivity compared to PSVue™380, 5 μM PS vesicles ([7]; 5 μM PS vesicles): comparable
4 | c1ccc(CN(Cc2ccccn2)Cc2ccc3ccc4cccc5ccc2c3c45)nc1 [I-5] | 0.9 | 1 | 1.7 | 3.9 | 2.5 | 7.9 | 5 | 15.9 | 1.4 | 2.6 | 1.9 | 4 | 4.4 | 14.1 | 5.4 | 16.7 | 2.9 | 8.8 | sensitivity compared to PSVue™380, 20 μM CL vesicles [4]: comparable; detection of bacterial cells versus mammalian MV4-11 cells by microscopy [9]: bacterial cells are detected more readily than mammalian MV4-11 cells
5 | c1ccc(CN(CCCCc2ccc3ccc4cccc5ccc2c3c45)Cc2ccccn2)nc1 [I-6] | 1 | 1 | 1.8 | 2.7 | 1.9 | 3.1 | 2.7 | 4.3 | 1.6 | 2.4 | 2.1 | 3 | 4.4 | 6.9 | 4.5 | 7.5 | 2.9 | 4.8 | 
6 | O=C(CCCCc1ccc2ccc3cccc4ccc1c2c34)NCCNC(=O)c1ccc(CN(Cc2ccccn2)CC(O)CN(Cc2ccccn2)Cc2ccccn2)nc1 (stereo not shown) [I-12] |  |  |  |  |  |  |  |  |  |  |  |  |  |  |  |  |  |  | ΔFIexc for all negatively charged vesicles [10]: ≥ 20; ΔFIexc for negatively charged vesicles, highest value (up to) [10]: ~80; ΔFIexc for zwitterionic vesicles [11]: ≤ 2
7 | c1cc2ccc3ccc(CN4CCNCCNCCNCC4)c4ccc(c1)c2c34 [II-1, 1-(pyren-1-ylmethyl)-1,4,7,10-tetraazacyclododecane] |  |  |  |  |  |  |  |  |  |  |  |  |  |  |  |  |  |  | ΔFI of unmetallated sensor versus metallated counterpart (PA vesicles; PA vesicles): outperformed its metallated counterpart; FIexc response to increasing PA vesicle concentrations, unmetallated (PA vesicles): comparable responses; ability to detect PA vesicles in the absence of Zn^2+ (ΔFI) (PA vesicles): retained their ability to detect PA
8 | c1cc2ccc3ccc(CN4CCCNCCNCCCNCC4)c4ccc(c1)c2c34 [II-3, 1-(pyren-1-ylmethyl)-1,4,8,11-tetraazacyclotetradecane] |  |  |  |  |  |  |  |  |  |  |  |  |  |  |  |  |  |  | effect of LPS kinase knockouts on fluorescence fold [12]: little to no change; effect of cardiolipin synthase knockouts on fluorescence fold [12]: greatest effect
9 | c1ccc(CN(Cc2ccccn2)Cc2ccc3ccc4cccc5ccc2c3c45)nc1 [II-5, 1-(pyren-1-yl)-N, N-bis(pyridin-2-ylmethyl)methanamine] |  |  |  |  |  |  |  |  |  |  |  |  |  |  |  |  |  |  | FIexc response to increasing PA vesicle concentrations, unmetallated (PA vesicles): did not respond; ability to detect PA vesicles in the absence of Zn^2+ (ΔFI) (PA vesicles): lost their ability to sense PA; effect of LPS kinase knockouts on fluorescence fold [12]: little to no change; effect of cardiolipin synthase knockouts on fluorescence fold [12]: greatest effect
